Test systems include 786-0 renal; A549 NSCLC; NCI/ADR-RES ovarian; OVCAR-3 ovarian; PC-3 prostate; SF-268 CNS; SNB-75 CNS; SW-620 colon; U251 CNS; UO-31 renal.
Assay in all cases: NCI anticancer screen, dose series, 48 h

Among the data in PubChem BioAssay (NCI) are TGI values, retold here.

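Growth conditions: 96-well plates. Treatment: test compound, 48 hours, 5 concentrations. Analysis: linear interpolation between bracketing concentrations; unreached endpoints set to highest concentration. TGI: concentration producing complete growth inhibition.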 Where a SMILES comes first, the peptide text is derived from it. The star is where a group is joined. Boc = CC(C)(C)OC(=O)* Some results are limits rather than exact numbers.

For `C=C(C)[C@@H](O)[C@H](O)C[C@H](C)C1CC[C@]2(C)C1=CC[C@@H]1[C@@]3(C)CC[C@@H](OC(C)=O)C(C)(C)[C@@H]3C[C@@H](OC3OC(COC(C)=O)C(O)C(O)C3O)[C@]12C` (stereo not given in full), the TGI in the experiment on 786-0 renal came out at 11.4 µM; in the experiment with A549 NSCLC, 12.2 µM; with NCI/ADR-RES ovarian it was 32 µM; in the experiment on OVCAR-3 ovarian, 4.79 µM; in the experiment with PC-3 prostate, 6.59 µM; in the experiment on SF-268 CNS, 9.86 µM. The TGI was determined as 8.32 µM with SNB-75 CNS, 12.3 µM in the experiment with SW-620 colon, 5.86 µM in the experiment on U251 CNS and 12.4 µM in the experiment on UO-31 renal.

For the compound `O=C1c2cc(I)ccc2N2CCN=C2N1Cc1ccccc1`, the TGI in the experiment with 786-0 renal, with A549 NSCLC, in the experiment with NCI/ADR-RES ovarian, with OVCAR-3 ovarian, in the experiment on PC-3 prostate and in the experiment on SF-268 CNS was above 100 µM in each case. Besides, the TGI with SNB-75 CNS is 39.7 µM; with SW-620 colon, above 100 µM; with U251 CNS it was above 100 µM; with UO-31 renal, above 100 µM.

With `O=C1/C(=C/c2ccc(Cl)cc2)Oc2cc(O)ccc21`, the TGI with 786-0 renal was above 100 µM; with A549 NSCLC, 91.7 µM; in the experiment on NCI/ADR-RES ovarian, 79.3 µM; in the experiment on OVCAR-3 ovarian, 96.1 µM; with PC-3 prostate, 89.7 µM; in the experiment on SF-268 CNS, above 100 µM. For the same compound, the TGI with SNB-75 CNS is above 100 µM; in the experiment on SW-620 colon it was above 100 µM; with U251 CNS it was 76.1 µM; with UO-31 renal, 47.1 µM.

Take `Cn1c2ccc(F)cc2c2ccc3c(c21)C(=O)C=CC3=O`: the TGI is 8.21 µM in the experiment on 786-0 renal; above 100 µM with A549 NSCLC; 59.6 µM with NCI/ADR-RES ovarian; 19.6 µM with OVCAR-3 ovarian; 19.3 µM in the experiment with PC-3 prostate; 58.2 µM with SF-268 CNS. Also, the TGI with SNB-75 CNS was 97.8 µM; in the experiment with SW-620 colon, 8.54 µM; with U251 CNS, 23.9 µM; with UO-31 renal, 14.9 µM.

`Clc1ccc(CCNC2(c3cc4ccccc4s3)CCCCC2)cc1Cl`: the TGI in the experiment with 786-0 renal is 36.8 µM; in the experiment on A549 NSCLC, above 100 µM; in the experiment on NCI/ADR-RES ovarian, 80.8 µM; with OVCAR-3 ovarian, 49.2 µM; in the experiment with PC-3 prostate it was above 100 µM; in the experiment with SF-268 CNS, above 100 µM. The TGI was 49.3 µM with SNB-75 CNS, above 100 µM with SW-620 colon, 65.4 µM in the experiment with U251 CNS and 36.7 µM with UO-31 renal.

As for `COC(=O)C(Cc1ccccc1)NC(=O)C(CS)NC(=O)OC(C)(C)C` (stereo not drawn) (Boc-Cys-Phe-OMe; configuration not given here), the TGI in the experiment on 786-0 renal, in the experiment with A549 NSCLC, in the experiment with NCI/ADR-RES ovarian, with OVCAR-3 ovarian, in the experiment on PC-3 prostate and in the experiment with SF-268 CNS was above 100 µM throughout. Also, the TGI with SNB-75 CNS, with SW-620 colon, in the experiment on U251 CNS and in the experiment on UO-31 renal was above 100 µM in each case.
